The results in this text go back to BindingDB's records for doi:10.1016/j.chembiol.2016.06.016 (Massachusetts Institute of Technology, 2016).

The structures appear in SMILES notation.

In assay [1] the target is Cytochrome b (Homo sapiens, UniProt P00156). As to the kind of experiment: Cytochrome b Enzyme Assay. Conditions: pH 7.4; 25 °C. How it is done: (§1) Reaction plates were incubated at room temperature for 10 min before reading absorbance at 550 nm. Absolute IC50 values were calculated in GraphPad Prism 6.0.
Chain of Cytochrome b (Homo sapiens, UniProt P00156) (P00156 whole entry): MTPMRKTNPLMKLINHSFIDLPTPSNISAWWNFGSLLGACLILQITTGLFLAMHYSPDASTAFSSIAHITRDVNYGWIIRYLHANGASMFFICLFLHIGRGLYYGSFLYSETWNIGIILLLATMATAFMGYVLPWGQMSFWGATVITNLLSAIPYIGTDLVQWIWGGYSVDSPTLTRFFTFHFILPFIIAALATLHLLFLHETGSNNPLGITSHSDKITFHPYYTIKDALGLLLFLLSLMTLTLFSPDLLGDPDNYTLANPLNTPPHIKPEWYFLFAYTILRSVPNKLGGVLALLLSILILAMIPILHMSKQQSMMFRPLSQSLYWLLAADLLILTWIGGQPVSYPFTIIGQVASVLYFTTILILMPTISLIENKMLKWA
In assay [2] the target is T1, Cytochrome b (Candida albicans, UniProt I2BJW5).
T1 sequence (I2BJW5 whole entry): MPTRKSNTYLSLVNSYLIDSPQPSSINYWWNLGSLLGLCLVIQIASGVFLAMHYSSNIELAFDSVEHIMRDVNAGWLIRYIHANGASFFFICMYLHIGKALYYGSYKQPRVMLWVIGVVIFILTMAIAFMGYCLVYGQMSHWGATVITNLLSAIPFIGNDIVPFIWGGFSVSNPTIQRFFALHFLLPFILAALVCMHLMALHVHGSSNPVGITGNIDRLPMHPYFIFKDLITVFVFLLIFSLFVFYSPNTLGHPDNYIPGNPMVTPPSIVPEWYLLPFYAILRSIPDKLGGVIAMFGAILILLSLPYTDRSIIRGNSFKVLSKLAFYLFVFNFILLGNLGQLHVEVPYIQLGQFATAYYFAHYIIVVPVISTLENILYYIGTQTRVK
As to the kind of experiment: Cytochrome b Enzyme Assay. The note with it: pH 7.4; 25 °C. As for the experimental part:
as §1

`COC(=O)Cn1nc(-c2cccc(OCCC3CCCCC3)c2)c2ccccc21` [Inz-64]: the half-maximal inhibitory concentration (IC50) on Cytochrome b [1] is 3.23 µM; against Cytochrome b [2], 0.3 µM.
With `CCN(CC)CCOc1cccc(-c2nn(CC(=O)OC)c3ccccc23)c1` [Inz-65], the half-maximal inhibitory concentration (IC50) against Cytochrome b [1] is above 64 µM; at Cytochrome b [2] it was 13.8 µM.
For `COC(=O)Cn1nc(-c2cccc(OCc3ccccc3)c2C)c2ccccc21` [Inz-66], the half-maximal inhibitory concentration (IC50) against Cytochrome b [1] was above 64 µM; against Cytochrome b [2], 1.08 µM.
As for `COC(=O)Cn1nc(-c2cccc(OCCN(C(C)C)C(C)C)c2)c2ccccc21` [Inz-67], the 50% inhibitory concentration (IC50) worked out at 19.3 µM against Cytochrome b [1] and 2.4 µM against Cytochrome b [2].
For `COC(=O)Cn1nc(-c2cc(OCc3ccccc3)ccc2F)c2ccccc21` [Inz-68] the same measures were 1.66 µM and 0.0352 µM.
Regarding `COC(=O)Cn1nc(-c2cccc(OCc3ccccc3)c2F)c2ccccc21` [Inz-69], the IC50 is above 64 µM on Cytochrome b [1] and 3.27 µM against Cytochrome b [2].
As for `COC(=O)Cn1nc(-c2cccc(F)c2)c2ccccc21` [Inz-70], the 50% inhibitory concentration (IC50) is above 64 µM on Cytochrome b [1] and 5.91 µM at Cytochrome b [2].
In the same order, the values of `COC(=O)Cn1nc(-c2ccc(F)cc2F)c2ccccc21` [Inz-71] are above 64 µM and 16.6 µM.
With `c1ccc(-c2nn(Cc3nnco3)c3ccccc23)cc1` [Inz-72], the half-maximal inhibitory concentration (IC50) at Cytochrome b [1] is above 64 µM; at Cytochrome b [2], 17.9 µM.
On to `COC(=O)Cn1nc(-c2cccs2)c2ccccc21` [Inz-73], for which the concentration for half-maximal inhibition (IC50) at Cytochrome b [1] is above 64 µM; at Cytochrome b [2], 15.1 µM.
As to `COC(=O)Cn1nc(-c2cccc(OCCC(C)(C)C)c2)c2ccccc21` [Inz-74], the half-inhibitory concentration (IC50) on Cytochrome b [1] amounted to 4.72 µM; at Cytochrome b [2] it was 0.657 µM.
Turning to `COC(=O)Cn1nc(-c2cccc(OCCC34CC5CC(CC(C5)C3)C4)c2)c2ccccc21` [Inz-75], the figures for the concentration for half-maximal inhibition (IC50) at Cytochrome b [1] and against Cytochrome b [2] were 1.08 µM and 1.14 µM, respectively.
As for `COC(=O)Cn1nc(-c2cccc(OCCCC3CCCCC3)c2)c2ccccc21` [Inz-76], the IC50 against Cytochrome b [1] was 5.46 µM; against Cytochrome b [2], 1.8 µM.
For `Cc1nc(Cn2nc(-c3ccccc3)c3ccccc32)no1` [Inz-77] the same measures were above 64 µM and above 64 µM.
Regarding `c1ccc(-c2nn(Cc3ncon3)c3ccccc23)cc1` [Inz-78], the IC50 is above 64 µM on Cytochrome b [1] and 14.8 µM at Cytochrome b [2].
For the molecule `c1ccc(-c2nn(Cc3c[nH]nn3)c3ccccc23)cc1` [Inz-79], the IC50 on Cytochrome b [1] and against Cytochrome b [2] was above 64 µM throughout.
For the molecule `COC(=O)Cn1nc(-c2cc(OCCCC3CCCCC3)ccc2F)c2cccc(C)c21` [Inz-80], the IC50 against Cytochrome b [1] was 0.79 µM; against Cytochrome b [2] it was 0.0388 µM.
In the same order, the values of `COC(=O)Cn1nc(-c2cc(OCCCC3CCCCC3)ccc2F)c2ccccc21` [Inz-81] are 2.43 µM and 0.129 µM.
For `Cn1nnc(Cn2nc(-c3cc(OCCCC4CCCCC4)ccc3F)c3ccccc32)n1` [Inz-82], the IC50 against Cytochrome b [1] turned out to be 12.3 µM; on Cytochrome b [2] it was 0.614 µM.
As to `Cn1nnc(Cn2nc(-c3cc(C(F)(F)F)ccc3F)c3ccccc32)n1` [Inz-83], the IC50 against Cytochrome b [1] was above 64 µM; against Cytochrome b [2], 1.22 µM.
Regarding `Cc1cccc2c(-c3cc(OCCCC4CCCCC4)ccc3F)nn(Cc3nnn(C)n3)c12` [Inz-84], the figures for the half-maximal inhibitory concentration (IC50) at Cytochrome b [1] and on Cytochrome b [2] were 2.92 µM and 0.154 µM, respectively.
As for `c1ccc(-c2nn(Cc3ccccn3)c3ccccc23)cc1` [Inz-85], the IC50 against Cytochrome b [1] and against Cytochrome b [2] was above 64 µM throughout.
In the case of `COC(=O)CNc1ccccc1Oc1ccccc1` [Inz-86], the IC50 against Cytochrome b [1] and at Cytochrome b [2] was above 64 µM throughout.
Regarding `CN(O)C(=O)Cn1nc(-c2ccccc2)c2ccccc21` [Inz-87], the IC50 against Cytochrome b [1] and on Cytochrome b [2] was above 64 µM each time.
Consider `O=C(Cn1nc(-c2ccccc2)c2ccccc21)NO` [Inz-88], for which the half-inhibitory concentration (IC50) against Cytochrome b [1] and on Cytochrome b [2] was above 64 µM throughout.
With `FC(F)Cn1nc(-c2ccccc2)c2ccccc21` [Inz-89], the half-inhibitory concentration (IC50) on Cytochrome b [1] and at Cytochrome b [2] was above 64 µM each time.
Turning to `Brc1cccnc1Cn1nc(-c2ccccc2)c2ccccc21` [Inz-90], the concentration for half-maximal inhibition (IC50) against Cytochrome b [1] and on Cytochrome b [2] was above 64 µM in each case.
For `N#Cc1ncccc1Cn1nc(-c2ccccc2)c2ccccc21` [Inz-91], the IC50 against Cytochrome b [1] and against Cytochrome b [2] was above 64 µM each time.
Take `COC(=O)Cn1nc(-c2ccncc2)c2ccccc21` [Inz-92]: the IC50 on Cytochrome b [1] and at Cytochrome b [2] was above 64 µM throughout.
On to `c1ccc(-c2nn(Cc3cncnc3)c3ccccc23)cc1` [Inz-93], for which the half-maximal inhibitory concentration (IC50) against Cytochrome b [1] and against Cytochrome b [2] was above 64 µM throughout.
As for `Fc1ccc(C(F)(F)F)cc1-c1nn(Cc2cnccn2)c2ccccc12` [Inz-94], the 50% inhibitory concentration (IC50) against Cytochrome b [1] is 35.1 µM; at Cytochrome b [2] it was 0.449 µM.
In the case of `COc1cccc2c(-c3cc(C(F)(F)F)ccc3F)nn(Cc3cnccn3)c12` [Inz-95], the IC50 is 15.2 µM on Cytochrome b [1] and 0.437 µM against Cytochrome b [2].
As to `N#Cc1cccc2c(-c3cc(C(F)(F)F)ccc3F)nn(Cc3cnccn3)c12` [Inz-96], the half-inhibitory concentration (IC50) against Cytochrome b [1] was above 64 µM; against Cytochrome b [2], 22.7 µM.
As to `Fc1ccc(C(F)(F)F)cc1-c1nn(Cc2cnccn2)c2ncccc12` [Inz-97], the values for the half-maximal inhibitory concentration (IC50) at Cytochrome b [1] and on Cytochrome b [2] were 54.4 µM and 0.935 µM, respectively.
With `Fc1ccc(C(F)(F)F)cc1-c1nn(Cc2cnccn2)c2ccncc12` [Inz-98], the IC50 against Cytochrome b [1] is above 64 µM; at Cytochrome b [2] it was 20.4 µM.
In the same order, the values of `Fc1ccc(C(F)(F)F)cc1-c1nn(Cc2cnccn2)c2cccnc12` [Inz-99] are above 64 µM and 17.7 µM.
For `Nc1ccc2c(-c3cc(C(F)(F)F)ccc3F)nn(Cc3cnccn3)c2c1` [Inz-100] the same measures were above 64 µM and 5.48 µM.
Consider `CC(=O)Nc1ccc2c(-c3cc(C(F)(F)F)ccc3F)nn(Cc3cnccn3)c2c1` [Inz-101], for which the half-inhibitory concentration (IC50) against Cytochrome b [1] and against Cytochrome b [2] was above 64 µM throughout.
As to `CS(=O)(=O)N(c1ccc2c(-c3cc(C(F)(F)F)ccc3F)nn(Cc3cnccn3)c2c1)S(C)(=O)=O` [Inz-102], the IC50 at Cytochrome b [1] and against Cytochrome b [2] was above 64 µM each time.
On to `CNc1ccc2c(-c3cc(C(F)(F)F)ccc3F)nn(Cc3cnccn3)c2c1` [Inz-103], for which the IC50 was above 64 µM against Cytochrome b [1] and 2.13 µM against Cytochrome b [2].
On to `COC(=O)Cc1nn(-c2ccccc2)c2ccccc12` [Inz-104], for which the results for the 50% inhibitory concentration (IC50) against Cytochrome b [1] and against Cytochrome b [2] were above 64 µM and 17.6 µM, respectively.
With `CCCCCCC1C(=O)O[C@H](C)[C@H](NC(=O)c2cccc(NC=O)c2O)C(=O)O[C@@H](C)[C@@H]1OC(=O)CC(C)C` (stereo partly drawn) [[(2R,3S,6S,7R)-3-[(3-formamido-2-hydroxybenzoyl)amino]-8-hexyl-2,6-dimethyl-4,9-dioxo-1,5-dioxonan-7-yl] 3-methylbutanoate], the IC50 against Cytochrome b [1] was 0.007 µM; against Cytochrome b [2], 0.005 µM.
